{"source": "ChEMBL document CHEMBL4673296", "about": "(J Med Chem, 2020)", "key": {"[1]": {"biological_target": "T1, Serine/threonine-protein kinase ULK2 (Homo sapiens, UniProt Q8IYT8)", "T1 sequence (Q8IYT8 whole entry)": "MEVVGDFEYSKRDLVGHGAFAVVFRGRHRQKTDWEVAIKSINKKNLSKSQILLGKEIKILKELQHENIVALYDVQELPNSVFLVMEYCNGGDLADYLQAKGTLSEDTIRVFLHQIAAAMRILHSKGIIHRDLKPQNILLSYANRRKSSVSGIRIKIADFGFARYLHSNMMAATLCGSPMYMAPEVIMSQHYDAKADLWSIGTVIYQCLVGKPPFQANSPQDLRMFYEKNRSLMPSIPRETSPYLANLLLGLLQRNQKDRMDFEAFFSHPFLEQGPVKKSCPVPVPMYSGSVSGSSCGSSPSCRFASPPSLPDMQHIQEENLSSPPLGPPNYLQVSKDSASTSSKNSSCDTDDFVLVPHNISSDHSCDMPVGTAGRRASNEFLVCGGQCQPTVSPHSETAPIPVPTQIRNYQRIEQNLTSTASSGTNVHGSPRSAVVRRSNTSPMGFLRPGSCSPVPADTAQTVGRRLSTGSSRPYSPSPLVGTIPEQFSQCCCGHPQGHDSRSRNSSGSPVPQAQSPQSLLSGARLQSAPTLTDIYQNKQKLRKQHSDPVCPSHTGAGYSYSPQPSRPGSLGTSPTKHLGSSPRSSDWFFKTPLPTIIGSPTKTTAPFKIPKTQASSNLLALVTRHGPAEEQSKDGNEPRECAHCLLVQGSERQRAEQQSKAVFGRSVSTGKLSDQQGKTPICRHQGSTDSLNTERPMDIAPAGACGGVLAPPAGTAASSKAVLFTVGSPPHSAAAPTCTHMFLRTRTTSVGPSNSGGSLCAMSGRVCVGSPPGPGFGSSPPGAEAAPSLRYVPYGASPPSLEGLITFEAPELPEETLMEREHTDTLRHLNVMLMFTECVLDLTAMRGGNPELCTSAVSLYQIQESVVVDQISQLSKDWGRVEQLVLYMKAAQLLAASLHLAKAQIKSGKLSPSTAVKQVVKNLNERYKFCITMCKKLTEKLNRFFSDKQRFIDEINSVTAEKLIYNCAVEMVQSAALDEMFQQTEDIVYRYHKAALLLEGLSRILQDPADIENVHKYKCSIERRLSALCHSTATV", "test": "Inhibition of ULK2 (unknown origin) expressed in HEK293T cells incubated for 2 hrs by NanoBRET assay", "format": "cell-based"}, "[2]": {"test": "Cmax in C57BL/6J mouse at 30 mg/kg, po measured upto 24 hrs by LC-MS/MS analysis", "format": "ADME, organism-based", "set-up": "route oral, dose 30 mg/kg, time <=24", "conditions": "in vivo"}, "[3]": {"test": "Half life in C57BL/6J mouse at 30 mg/kg, po measured upto 24 hrs by LC-MS/MS analysis", "format": "ADME, organism-based", "conditions": "in vivo"}, "Mus musculus": {"tested_on": "Mus musculus", "test": "Decrease in ULK1 level in liver lysate of C57BL/6J mouse at 10 mg/kg, po measured after 2 hrs by Western blot analysis", "format": "functional, organism-based"}, "[4]": {"test": "Apparent permeability of the compound across apical side to basolateral side in human Caco2 cells", "format": "ADME, cell-based", "conditions": "Caco-2"}, "MDA-MB-468 [5]": {"tested_on": "MDA-MB-468", "test": "cells", "conditions": "Homo sapiens, MDA-MB-468, 72 h", "description": "Cytotoxicity against human MDA-MB-468 cells measured after 72 hrs by Celltiter-Glo assay"}, "MDA-MB-468 [6]": {"tested_on": "MDA-MB-468", "test": "Inhibition of olaparib-induced autophagic flux in human MDA-MB-468 cells expressing tandem-labelled mCherryEGFP-LC3 chimeric protein at 10 uM measured after 48 hrs by flow cytometry", "format": "functional, cell-based"}, "MDA-MB-468 [7]": {"tested_on": "MDA-MB-468", "test": "Induction of apoptosis in human MDA-MB-468 cells assessed as necrotic cells at 10 uM measured after 18 hrs in normal growth media by AnnexinV/7-AAD staining based flow cytometric analysis (reference value: 0.2%)", "format": "functional"}, "MDA-MB-468 [8]": {"tested_on": "MDA-MB-468", "test": "Synergistic cytotoxicity against human MDA-MB-468 cells at 0.19 to 1.7 uM in presence of PARP inhibitor niraparib measured after 72 hrs by Celltiter-Glo assay", "format": "functional, cell-based", "conditions": "dose 0.19-1.7 µM"}, "MDA-MB-468 [9]": {"tested_on": "MDA-MB-468", "test": "Induction of apoptosis in human MDA-MB-468 cells assessed as late apoptotic cells at 10 uM measured after 18 hrs in normal growth media by AnnexinV/7-AAD staining based flow cytometric analysis (reference value: 6.8%)", "format": "functional"}, "[10]": {"biological_target": "T2, Serine/threonine-protein kinase ULK1 (Homo sapiens, UniProt O75385)", "T2 sequence (O75385 whole entry)": "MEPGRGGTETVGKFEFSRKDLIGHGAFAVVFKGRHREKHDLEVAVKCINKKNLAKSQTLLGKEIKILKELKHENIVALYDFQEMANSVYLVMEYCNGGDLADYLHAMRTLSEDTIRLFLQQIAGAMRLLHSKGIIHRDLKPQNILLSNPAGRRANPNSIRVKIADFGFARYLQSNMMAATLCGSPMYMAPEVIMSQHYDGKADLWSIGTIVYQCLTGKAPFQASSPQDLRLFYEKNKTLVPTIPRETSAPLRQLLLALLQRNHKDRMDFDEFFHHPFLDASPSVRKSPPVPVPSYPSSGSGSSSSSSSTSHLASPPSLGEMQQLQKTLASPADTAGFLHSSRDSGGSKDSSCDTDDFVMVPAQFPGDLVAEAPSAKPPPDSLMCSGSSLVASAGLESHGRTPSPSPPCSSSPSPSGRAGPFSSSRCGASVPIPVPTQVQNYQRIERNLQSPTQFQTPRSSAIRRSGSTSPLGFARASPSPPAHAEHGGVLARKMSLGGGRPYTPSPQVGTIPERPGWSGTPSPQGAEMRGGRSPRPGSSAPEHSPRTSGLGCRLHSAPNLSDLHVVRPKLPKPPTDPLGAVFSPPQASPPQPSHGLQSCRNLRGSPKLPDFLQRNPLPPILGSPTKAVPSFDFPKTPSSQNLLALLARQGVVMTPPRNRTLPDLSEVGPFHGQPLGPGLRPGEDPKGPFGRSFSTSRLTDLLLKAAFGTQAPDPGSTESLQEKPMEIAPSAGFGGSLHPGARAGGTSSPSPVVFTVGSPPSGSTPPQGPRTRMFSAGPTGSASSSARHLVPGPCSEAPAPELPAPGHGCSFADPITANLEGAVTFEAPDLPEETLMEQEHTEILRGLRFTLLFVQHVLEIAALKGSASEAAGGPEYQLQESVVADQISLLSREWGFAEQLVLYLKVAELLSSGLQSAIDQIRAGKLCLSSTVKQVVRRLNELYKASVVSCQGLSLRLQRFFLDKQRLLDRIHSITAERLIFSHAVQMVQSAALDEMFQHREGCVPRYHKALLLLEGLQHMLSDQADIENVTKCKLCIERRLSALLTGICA", "test": "Inhibition of ULK1 (unknown origin) expressed in HEK293T cells incubated for 2 hrs by NanoBRET assay", "format": "cell-based"}, "[11]": {"biological_target": "T3, Serine/threonine-protein kinase ULK1 (Homo sapiens) (UniProt O75385)", "T3 sequence (whole entry)": "T2 sequence (O75385 whole entry)", "test": "Inhibition of Myc-tagged ULK1 (unknown origin) expressed in HEK293T cells cotransfected with wild-type Flag tagged Vps34 assessed as decrease in pVPS34 Ser249 at 10 uM measured after 1 hr by Western blot analysis relative to control", "format": "cell-based"}, "MDA-MB-468 [12]": {"tested_on": "MDA-MB-468", "test": "Induction of apoptosis in human MDA-MB-468 cells assessed as viable cells at 10 uM measured after 18 hrs in normal growth media by AnnexinV/7-AAD staining based flow cytometric analysis (reference value: 87.4%)", "format": "functional", "conditions": "read-out: Activity"}}, "note": "Activity calls are given as the source filed them. The calls are words filed in the database; no cut-off is given here."}
{"molecule": "COc1ccc(Nc2ncc(C(F)(F)F)c(NC3CC3)n2)cc1OC", "values": [{"measurement": "IC50", "setting": "[1]", "result": 1160, "unit": "nM"}, {"measurement": "Cmax", "setting": "[2]", "result": 990, "unit": "nM"}, {"measurement": "half-life", "setting": "[3]", "result": 1.7, "unit": "h"}, {"measurement": "inhibition", "setting": "Mus musculus", "result": "Active"}, {"measurement": "Papp A→B", "setting": "[4]", "result": "> 10", "unit": "×10⁻⁶ cm/s"}, {"measurement": "IC50", "setting": "MDA-MB-468 [5]", "result": 300, "unit": "nM"}, {"measurement": "inhibition", "setting": "MDA-MB-468 [6]", "result": "Active"}, {"measurement": "Activity", "setting": "MDA-MB-468 [7]", "result": 0.2, "unit": "%"}, {"measurement": "Activity", "setting": "MDA-MB-468 [8]", "result": "Active"}, {"measurement": "Activity", "setting": "MDA-MB-468 [9]", "result": 6.8, "unit": "%"}, {"measurement": "IC50", "setting": "[10]", "result": 328, "unit": "nM"}, {"measurement": "inhibition", "setting": "[11]", "result": 90, "unit": "%"}, {"measurement": "viability at 10 µM", "setting": "MDA-MB-468 [12]", "result": 64.1, "unit": "%"}]}
